The text below walks through data of PubChem BioAssay (NCI).

“And” between values parts separate entries of the source, which are not always exact repeats. Equal values may be shown once.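 Results reflect a 48-hour exposure of cells in 96-well plates to compound at five concentrations. GI50 is the concentration that inhibits growth by half. Definition used: TGI = concentration required for complete inhibition of growth.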 A value given as a limit tells only on which side of the number the result lay.

Some test systems named below: MALME-3M melanoma; COLO 205 colon; LOX IMVI melanoma; UO-31 renal; SK-OV-3 ovarian; OVCAR-8 ovarian; CCRF-CEM leukemia; EKVX NSCLC; HOP-62 NSCLC; HL-60(TB) leukemia.
Common to all, as to test: inhibition of tumour cell growth, NCI panel, 48 h

Consider `C=C1SC(=Nc2ccccc2Cl)N(C(=O)c2sc3ccccc3c2Cl)C12CCCCC2`, for which the GI50 was 29.2 µM in the test with MALME-3M melanoma; 8.5 µM in the test with COLO 205 colon; 21.8 µM in the test with LOX IMVI melanoma; 2.33 µM in the test with UO-31 renal; 13.9 µM in the test with SK-OV-3 ovarian; 6.62 µM in the test with OVCAR-8 ovarian. Besides, the GI50 with CCRF-CEM leukemia is 5.41 µM; in the test with EKVX NSCLC, 3.2 µM; with HOP-62 NSCLC it was 9.08 µM; with HL-60(TB) leukemia, 6.63 µM. The TGI was over 100 µM in the test with MALME-3M melanoma; 22.4 µM with COLO 205 colon; over 100 µM in the test with LOX IMVI melanoma; over 100 µM in the test on UO-31 renal; over 100 µM with SK-OV-3 ovarian; over 100 µM in the test on OVCAR-8 ovarian. Moreover, the TGI was over 100 µM with CCRF-CEM leukemia, over 100 µM in the test with EKVX NSCLC, over 100 µM with HOP-62 NSCLC and 89.3 µM in the test with HL-60(TB) leukemia.

As for `CC(=O)NNc1nc(C)c(C(=O)/C=C/c2ccc(Cl)cc2)s1`, the TGI with MALME-3M melanoma, with COLO 205 colon, with LOX IMVI melanoma, in the test with UO-31 renal, in the test with SK-OV-3 ovarian and in the test on OVCAR-8 ovarian was over 100 µM each time. The TGI with CCRF-CEM leukemia, in the test on EKVX NSCLC, in the test with HOP-62 NSCLC and with HL-60(TB) leukemia was over 100 µM in each case.

With `C#CC1(O)CCC2[C@@H]3CCc4cc(Oc5nc(F)nc(-c6c7ccccc7c(SCC)n6CCC)n5)ccc4C3CC[C@@]21C` (some centres not stated), the TGI in the test with MALME-3M melanoma, in the test with COLO 205 colon, in the test on LOX IMVI melanoma, in the test on UO-31 renal, in the test with SK-OV-3 ovarian and in the test with OVCAR-8 ovarian was over 100 µM throughout. For the same compound, the TGI with CCRF-CEM leukemia, in the test with EKVX NSCLC, in the test on HOP-62 NSCLC and in the test with HL-60(TB) leukemia was over 100 µM each time.

As to `O=C(/C=C1\C(=O)N(Cc2ccccc2)c2ccccc21)c1ccc(OCCN2CCCCC2)cc1`, the GI50 with MALME-3M melanoma was 1.71 µM; in the test with COLO 205 colon it was 1.77 µM; in the test with LOX IMVI melanoma it was 1.71 µM; in the test with UO-31 renal, 1.54 µM; in the test with SK-OV-3 ovarian, 15 µM; in the test on OVCAR-8 ovarian, 2.13 µM. For the same compound, the GI50 in the test on CCRF-CEM leukemia is 1.83 µM; in the test on EKVX NSCLC it was 2.36 µM; in the test on HOP-62 NSCLC, 18.4 µM; in the test with HL-60(TB) leukemia, 1.71 µM. For the same compound, the TGI in the test on MALME-3M melanoma was determined as 3.39 µM; in the test on COLO 205 colon it was 3.27 µM; in the test on LOX IMVI melanoma, 3.14 µM; with UO-31 renal it was 2.87 µM; in the test on SK-OV-3 ovarian, 28.2 µM; in the test with OVCAR-8 ovarian it was 4.16 µM. Besides, the TGI in the test on CCRF-CEM leukemia is 5.9 µM; with EKVX NSCLC it was 7.48 µM; with HOP-62 NSCLC it was 32.4 µM; in the test with HL-60(TB) leukemia it was 4.39 µM.

As for `C[C@]12CC[C@H]3[C@@H](CC4SC(N)=NC45C/C(=N/NC(N)=O)CC[C@]35C)[C@@H]1CCC2=O` (some centres not stated), the GI50 in the test with MALME-3M melanoma was 1.76 µM; with COLO 205 colon it was 2.06 µM; in the test with LOX IMVI melanoma, 1.71 µM; in the test with UO-31 renal it was 1.52 µM; in the test with SK-OV-3 ovarian, 6.21 µM; in the test with OVCAR-8 ovarian it was 1.85 µM. The GI50 in the test with CCRF-CEM leukemia is 0.28 µM; with EKVX NSCLC, 1.8 µM; with HOP-62 NSCLC it was 1.84 µM; with HL-60(TB) leukemia, 2.73 µM. Besides, the TGI with MALME-3M melanoma came to 3.49 µM; in the test with COLO 205 colon, 4.37 µM; in the test on LOX IMVI melanoma, 3.12 µM; with UO-31 renal, 2.88 µM; in the test with SK-OV-3 ovarian it was 22.3 µM; in the test with OVCAR-8 ovarian, 3.63 µM. The TGI with CCRF-CEM leukemia amounted to 1.62 µM; with EKVX NSCLC, 3.63 µM; with HOP-62 NSCLC, 3.47 µM; in the test on HL-60(TB) leukemia, 7.95 µM.

Consider `Cc1c(N)nc(C(CC(N)=O)NCC(N)C(N)=O)nc1C(=O)NC(C(=O)NC(C)C(O)C(C)C(=O)NC(C(=O)NCCc1nc(-c2nc(C(=O)NCCCNC(C)c3ccccc3)cs2)cs1)C(C)O)C(OC1OC(CO)C(O)C(O)C1OC1OC(CO)C(O)C(OC(N)=O)C1O)c1cnc[nH]1` (configuration not stated), for which the GI50 is 1.84 µM in the test with MALME-3M melanoma; 32.6 µM in the test with COLO 205 colon; 0.479 µM in the test on LOX IMVI melanoma; 2.9 µM in the test with UO-31 renal; 7.5 µM in the test with CCRF-CEM leukemia; over 100 µM in the test with EKVX NSCLC. Further, the GI50 was 0.0845 µM with HOP-62 NSCLC and 32 µM in the test on HL-60(TB) leukemia. For the same compound, the TGI in the test on MALME-3M melanoma was 37.2 µM and > 100 µM; in the test on COLO 205 colon it was 50 µM and > 100 µM; in the test on LOX IMVI melanoma, 2.3 µM and 10.3 µM; with SK-OV-3 ovarian it was 45.6 µM; in the test on OVCAR-8 ovarian it was 50 µM and > 100 µM; with CCRF-CEM leukemia, 50 µM and > 100 µM. Moreover, the TGI in the test with EKVX NSCLC was 50 µM and > 100 µM; with HOP-62 NSCLC, 1.07 µM and 3.01 µM; in the test with HL-60(TB) leukemia, 50 µM and > 100 µM.

For the compound `C=C1C(=O)O[C@H]2[C@H]1CC/C(COC(=O)CCCc1c[nH]c3ccccc13)=C\CC[C@@]1(C)O[C@@H]21`, the GI50 in the test on MALME-3M melanoma was 1.79 µM; with COLO 205 colon, 1.86 µM; with LOX IMVI melanoma, 1.55 µM; with UO-31 renal, 1.41 µM; in the test on SK-OV-3 ovarian it was 17.3 µM; in the test with OVCAR-8 ovarian, 3.38 µM. The GI50 was 0.715 µM in the test with CCRF-CEM leukemia, 2.02 µM in the test on EKVX NSCLC, 6.54 µM with HOP-62 NSCLC and 1.63 µM with HL-60(TB) leukemia. Besides, the TGI in the test with MALME-3M melanoma stood at 3.56 µM; in the test with COLO 205 colon, 3.79 µM; in the test with LOX IMVI melanoma, 2.95 µM; in the test on UO-31 renal, 2.73 µM; in the test with SK-OV-3 ovarian it was 32.8 µM; in the test with OVCAR-8 ovarian, 11.2 µM. Further, the TGI in the test on CCRF-CEM leukemia worked out at 7.5 µM; in the test on EKVX NSCLC, 5.01 µM; in the test with HOP-62 NSCLC, 19.6 µM; with HL-60(TB) leukemia, 5.01 µM.

As to `O=S(=O)(N=NC=C1c2ccccc2N(O)c2ccccc21)c1ccc(Cl)cc1`, the TGI in the test on MALME-3M melanoma, in the test with COLO 205 colon, in the test on LOX IMVI melanoma, in the test on UO-31 renal, in the test on SK-OV-3 ovarian and in the test on OVCAR-8 ovarian was over 100 µM in each case. The TGI in the test on CCRF-CEM leukemia, in the test on EKVX NSCLC, in the test with HOP-62 NSCLC and in the test with HL-60(TB) leukemia was over 100 µM each time.
